Values joined by “and” are separate entries in the source; they are usually repeats but may differ in a detail not shown here. Equal values may be shown once.
Key:
ShHTL7S95C = assay: Intrinsic Triton fluorescence binding assay; parameters: species or system Striga hermonthica; settings: inactive ShHTL7S95C; buffer with 0.005% Tween‐20; converged after 2.5 h of incubation; read-out: dissociation constant (Kd), intrinsic Triton fluorescence
ShHTL7 L143Y mutant = assay: Intrinsic Triton fluorescence binding assay; parameters: species or system Striga hermonthica
Protocol: Triton X‐100 has an excitation and emission wavelength of 275 and 302 nm, respectively. ShHTL7, ShHTL7‐L143Y, AtD14, and OsD14 were incubated in 50 mM Tris–HCl pH 7.5, 150 mM NaCl, with or without 0.005% Tween‐20, at concentrations ranging from 10 μM to 1 nM (obtained using serial dilutions) with 154 nM of Triton X‐100 for 1–2 h, and fluorescence values were then measured by SpectraMax i3 (Molecular Devices) at excitation and detection wavelengths of 275 and 302 nm, respectively. […] Data were normalized to the background fluorescence from the protein to obtain the change in Triton X‐100 fluorescence intensity. To determine the K d, the changes in Triton X‐100 fluorescence intensity were plotted against the concentration of the protein using the single binding site model implemented in GraphPad (Prism 6).

ShHTL7 [1] = molecular target: T1, ShHTL7 (Striga hermonthica, UniProt A0A0M3PNA2); assay: Microscale thermophoresis (MST); assay type: binding; settings: 2.5 h pre‐incubation; 0.005% Tween‐20; read-out: dissociation constant (Kd), MST
T1 sequence (A0A0M3PNA2 1-271): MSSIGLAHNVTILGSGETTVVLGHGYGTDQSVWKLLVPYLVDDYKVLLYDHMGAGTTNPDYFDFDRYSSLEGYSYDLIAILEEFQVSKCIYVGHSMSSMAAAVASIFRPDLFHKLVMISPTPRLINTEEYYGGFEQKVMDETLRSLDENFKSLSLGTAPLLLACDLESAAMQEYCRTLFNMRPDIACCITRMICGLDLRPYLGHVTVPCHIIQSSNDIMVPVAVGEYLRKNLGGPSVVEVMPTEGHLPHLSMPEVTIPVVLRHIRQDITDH
Protocol: ShHTL7 was N‐terminally labeled with RED dye (NT‐647) following the protocol from manufacturer (NanoTemper, Germany). Free dye was removed by passing through the Sephadex G‐25 column. Serial dilutions of unlabeled Triton X‐100, GR24, and PAA ranging from 25 μM to sub‐nanomolar range were mixed with 20 nM of NT‐647‐labeled ShHTL7 in buffer (50 mM Tris–HCl, 150 mM NaCl, 0.005% Tween‐20) and incubated for 2.5 h in the studies for Triton X‐100 and PAA except with GR24, and it was recorded after 10‐min incubation. About 10 μl of sample was loaded into premium monolith NT capillaries, and assays were carried out in a NanoTemper Monolith NT.015T. The red fluorescence was excited by a light‐emitting diode, and its emission was recorded on the focused part of capillaries. Using laser diode, a microscopic temperature gradient was created at the same location and the fluorescence depletion was measured. K d values were determined by plotting the concentrations of unlabeled ligands against the changes in fluorescent thermophoresis signal, and the data were analyzed using the NanoTemper analysis software.

ShHTL7 [2] = molecular target: T1, ShHTL7; assay: Yoshimulactone Green (YLG) hydrolysis competition assay; assay type: biochemical
Protocol: In vitro YLG hydrolysis assays were performed using 3 μM of ShHTL7, ShHTL7‐L143Y, AtD14, and OsD14 in a reaction buffer (1× PBS) with 0.1% dimethyl sulfoxide (DMSO) in a 100 μl volume on a 96‐well black plate (Greiner). The fluorescent intensity was measured by SpectraMax i3 (Molecular Devices) using an excitation wavelength of 480 nm and a detection wavelength of 520 nm. […] Protein‐Triton mixes were pre‐incubated for 30 min. 1 μM YLG (Tokyo Chemical Industry Co. Ltd.) was then added, and the assay was incubated for 60 min. The change in fluorescence observed over the course of 1 h incubation of YLG in buffer without protein was subtracted from the data collected in the presence of protein. The resulting relative fluorescence values were analyzed. The inhibitory curves and IC50 values were plotted using GraphPad (Prism 6) four‐parameter logistic curve. The rate of YLG hydrolysis by ShHTL7 was recorded following the above method at 10‐min interval for 2 h.

AtD14 = molecular target: T2, AtD14 (Arabidopsis thaliana, UniProt Q9SQR3); assay: YLG hydrolysis assay; assay type: biochemical
T2 construct: made in house; host or cells: E. coli BL21 (DE3)
T2 sequence (Q9SQR3 1-267): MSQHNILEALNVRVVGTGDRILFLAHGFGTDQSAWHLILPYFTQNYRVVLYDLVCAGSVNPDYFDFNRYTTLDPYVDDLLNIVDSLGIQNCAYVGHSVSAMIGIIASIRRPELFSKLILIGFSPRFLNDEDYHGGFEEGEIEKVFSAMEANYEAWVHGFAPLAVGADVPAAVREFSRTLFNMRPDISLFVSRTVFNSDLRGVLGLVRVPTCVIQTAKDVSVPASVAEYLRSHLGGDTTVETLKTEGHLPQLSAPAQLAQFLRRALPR
Protocol: In vitro YLG hydrolysis assays were performed using 3 μM of ShHTL7, ShHTL7‐L143Y, AtD14, and OsD14 in a reaction buffer (1× PBS) with 0.1% dimethyl sulfoxide (DMSO) in a 100 μl volume on a 96‐well black plate (Greiner). The fluorescent intensity was measured by SpectraMax i3 (Molecular Devices) using an excitation wavelength of 480 nm and a detection wavelength of 520 nm. ShHTL7, ShHTL7‐L143Y, AtD14, and OsD14 were mixed with Triton X‐100, using serial dilutions to cover the Triton X‐100 concentration range from 5 μM until 4.87 nM. Protein‐Triton mixes were pre‐incubated for 30 min. 1 μM YLG (Tokyo Chemical Industry Co. Ltd.) was then added, and the assay was incubated for 60 min. The change in fluorescence observed over the course of 1 h incubation of YLG in buffer without protein was subtracted from the data collected in the presence of protein. The resulting relative fluorescence values were analyzed. The inhibitory curves and IC50 values were plotted using GraphPad (Prism 6) four‐parameter logistic curve. The rate of YLG hydrolysis by ShHTL7 was recorded following the above method at 10‐min interval for 2 h.

Striga hermonthica seeds = assay: Striga hermonthica germination bioassay; assay type: in vivo
Protocol: Striga hermonthica seeds were collected from Sorghum bicolor field in Sudan. For germination bioassays, Striga seeds were first sterilized and pre‐conditioned as described before 31. […] Triton X‐100/GR24 mixtures were applied (50 μl per disk) in four replicates. Corresponding volumes of GR24 and sterile MiliQ water were included as positive and negative control, respectively. The petri dishes were sealed with parafilm, enfolded with aluminum foil, and incubated for 48 h at 30°C. The germinated (seeds with radicle emerging through the seed coat) and non‐germinated Striga seeds were recorded under a binocular, and germination percentage was calculated.

Substance: Triton X-100
- Kd (ShHTL7S95C): 195 ± 21 nM
- binding to ShHTL7 L143Y mutant in vitro (ShHTL7 L143Y mutant): failed to bind
- Kd (ShHTL7 [1]): 440 ± 50 nM
- IC50 (ShHTL7 [2]; 3 μM ShHTL7, 1 μM YLG, pre‐incubation with compound, read-out: IC50, YLG hydrolysis by ShHTL7): 470 ± 110 nM
- fold lower IC50 than that reported for Soporidine (ShHTL7 [2]; compared with non‐specific inhibitor Soporidine): 25 fold
- decrease of YLG hydrolysis rate (AtD14; 5 μM Triton): 10%
- effect on YLG hydrolysis activity (AtD14; Triton up to 0.5 μM): did not impact
- reduction in GR24‐induced germination (Striga hermonthica seeds; 15 μM Triton, GR24 0.125–1 nM, 2 days): ~ 50% and 50%
- reduction of Striga germination by Triton (Striga hermonthica seeds; in vivo): up to 50%

Source: article PMC6123649, “Structural basis for specific inhibition of the highly sensitive ShHTL7 receptor” (EMBO Reports, 2018)
